Columns and labels:
P. demoleus [1] = assay: Egg laying by P. demoleus on Piper aduncum cuttings sprayed with lime oil or d-limonene (choice test, Example 5); format: in vivo, Papilio demoleus
Method: Five P. demoleus pupae were placed in the cage. Upon hatching, the emerging adults were determined to be 3 males and 2 females. The butterflies were allowed to mate and given a choice of plants on which to lay by placing all around the cage unsprayed lime seedlings, unsprayed Piper aduncum cuttings, Piper aduncum cuttings sprayed with lime oil, and Piper aduncum cuttings sprayed with d-limonene. Egg laying was allowed to continue for up a total of 16 days, only the first 8 of which the Piper aduncum shoots remained fresh. Referring to Table 5A, a total of 16 eggs were laid in the first 8 days. The majority of eggs (62.5%) were laid on unsprayed lime plant. However, a significant number of eggs were laid on sprayed Piper aduncum shoots (37.5%). […] No eggs were laid on unsprayed Piper aduncum.
After day 8, the Piper aduncum leaves began to wilt and were noticeably less attractive to gravid females. […] By day 20, no more eggs were laid, and the total number of eggs was counted.
All of the eggs that were laid on lime plant hatched into larvae that fed normally on the lime plant leaves on which they were laid. The 6 eggs laid on Piper aduncum shoots sprayed with lime oil or d-limonene hatched normally. The Piper aduncum shoots were still young, fresh, and otherwise capable of sustaining larvae when the eggs laid eggs on sprayed Piper aduncum shoots hatched. […]

P. demoleus [2] = assay: Induced egg laying of P. demoleus on Piper amalago var. amalago plant sprayed with lime plant oil (choice test, Example 2); format: in vivo, Papilio demoleus; conditions: Piper amalago var. amalago plant sprayed with the attractant
Text: P. demoleus were induced to lay eggs on Piper amalago var. amalago plant to confirm its unsuitability to sustain target insects and to determine whether it could be used to reduce the population size of target insects. Natural Piper amalago var. amalago plant was considered a suitable non-host plant because P. demoleus would not feed or breed on it in the wild.
Twelve pupae bred on lime plants were placed in the laying cage and were allowed to mate. Gravid females were given a choice of plants on which to lay: unsprayed lime, unsprayed Piper amalago var. amalago plant, and Piper amalago var. amalago plant sprayed with lime plant oil. Piper amalago var. amalago plant sprayed with lime plant oil was prepared using an aerosol spray containing 0.45% by weight lime plant oil in a hydrocarbon mixture. The aerosol mixture was applied to the young leaves of Piper amalago var. amalago plants twice daily.
Gravid females were allowed to lay eggs until the laying subsided on the tenth day. Of the 95 eggs laid, the majority were laid on Piper amalago var. amalago plant sprayed with lime oil. Sixty-one eggs, or 64%, were laid on Piper amalago var. amalago plant sprayed with lime oil. Only 34 eggs, or 36%, were laid on unsprayed lime plant. No eggs were laid on unsprayed Piper amalago var. amalago plant. […]

Compound: C=C(C)[C@H]1CC=C(C)CC1 [d-limonene]
- eggs laid on sprayed Piper aduncum (P. demoleus [1]; Days 1-8, choice vs unsprayed lime and unsprayed Piper aduncum, total 16 eggs): 3 eggs
- eggs laid on sprayed Piper aduncum (P. demoleus [1]; Days 9-20 as titled, total 39 eggs): 3 eggs
- breeding and feeding on sprayed Piper amalago var. amalago plants (P. demoleus [2]): majority of the P. demoleus population was induced to breed, but not feed
